Data reported in patent US7875618B2, “Substituted imidazo[1,5-a]quinoxalines useful as inhibitors of phosphodiesterase 10 for the treatment of neurological and other disorders” (Wyeth, priority 2007, dated 2011).

Assays:
PDE10 from pig striatum = PDE10 from pig striatum (Sus scrofa, UniProt A0A287B941); assay: Inhibition of PDE10 from pig striatum ([3H]-cAMP SPA, Methods A and B); assay type: biochemical; conditions: for IC50: PDE10 pig
Method: Striatum from male Wistar rats (180-200 g), male hybrid pigs (150 kg) and male guinea pigs (CRL (HA), 500 g) respectively were collected and frozen at −70° C. At the day of preparation 0.5 g striatum was homogenised in 10 ml 50 mM Tris/Mg-buffer at 4° C. and centrifuged for one hour at 100000 g. The supernatant is called the cytosolic fraction and was removed and stored on ice. The pellet was resuspended in the same buffer, but containing 1% Triton and incubated for 45 min at 4° C. Both fractions were independently applied onto a 5 ml Hi Trap™ QHP column at the Äkta-FPLC. After washing the columns the bound PDE protein was eluted with an increasing sodium chloride gradient (0 mM-500 mM sodium chloride) in 50 mM Tris/Mg-buffer at 4° C. for the cytosolic fraction and in the presence of 1% Triton for the membrane fraction. […] The fractions with PDE10-activity were pooled and frozen in aliquots until use at −20° C. PDE10 activity was determined in a one step procedure in microtiter plates. […] Nonspecific activity was tested without the enzyme. The reaction was initiated by addition of the substrate solution and was carried out at 37° C. for 30 minutes. Enzymatic activity was stopped by addition of 25 μl YSi-SPA-beads (Amersham-Pharmacia). One hour later the mixture was measured in a liquid scintillation counter for microtiter plates (Microbeta Trilux). To pipette the incubation mixture a robot Biomek (Fa. Beckman) is used. […] For determination of IC50 values the Hill-plot, 2-parameter-model, was used. […] Striatum from male hybrid pigs (150 kg) were collected and frozen at −70° C. At the day of preparation 0.5 g striatum was homogenised in 10 ml 50 mM Tris/Mg-buffer at 4° C. and centrifuged for one hour at 100000 g. The supernatant was removed and the pellet was resuspended in the same buffer, but containing 1% Triton and incubated for 45 min at 4° C. The membrane fraction was applied onto a 5 ml Hi Trap™ QHP column at the Äkta-FPLC. After washing the column the bound PDE protein was eluted with an increasing sodium chloride gradient (0 mM-500 mM sodium chloride) in 50 mM Tris/Mg-buffer at 4° C. in the presence of 1% Triton. […] The fractions with PDE10-activity were pooled and frozen in aliquots until use at −20° C. PDE10 activity was determined in a one step procedure in microtiterplates. […] Nonspecific activity was tested without the enzyme. The reaction was initiated by addition of the substrate solution and was carried out at 37° C. for 30 minutes. Enzymatic activity was stopped by addition of 25 μl YSi-SPA-beads (Amersham-Pharmacia). One hour later the mixture was measured in a liquid scintillation counter for microtiterplates (Microbeta Trilux). To pipette the incubation mixture a robot Biomek (Fa. Beckman) is used. […] For determination of IC50 values the Hill-plot, 2-parameter-model, was used.

human recombinant PDE10A = biological target: T1, human recombinant PDE10A (Homo sapiens, UniProt Q9Y233); assay: Inhibition of human recombinant PDE10A ([3H]-cAMP SPA, Method B); assay type: biochemical; conditions: read-out: PDE10 inhibition IC50 [nM] PDE10A human
T1 construct: made in house; host or cells: SF21 insect cells (baculovirus)
T1 sequence (Q9Y233 1-779 isoform Q9Y233-1): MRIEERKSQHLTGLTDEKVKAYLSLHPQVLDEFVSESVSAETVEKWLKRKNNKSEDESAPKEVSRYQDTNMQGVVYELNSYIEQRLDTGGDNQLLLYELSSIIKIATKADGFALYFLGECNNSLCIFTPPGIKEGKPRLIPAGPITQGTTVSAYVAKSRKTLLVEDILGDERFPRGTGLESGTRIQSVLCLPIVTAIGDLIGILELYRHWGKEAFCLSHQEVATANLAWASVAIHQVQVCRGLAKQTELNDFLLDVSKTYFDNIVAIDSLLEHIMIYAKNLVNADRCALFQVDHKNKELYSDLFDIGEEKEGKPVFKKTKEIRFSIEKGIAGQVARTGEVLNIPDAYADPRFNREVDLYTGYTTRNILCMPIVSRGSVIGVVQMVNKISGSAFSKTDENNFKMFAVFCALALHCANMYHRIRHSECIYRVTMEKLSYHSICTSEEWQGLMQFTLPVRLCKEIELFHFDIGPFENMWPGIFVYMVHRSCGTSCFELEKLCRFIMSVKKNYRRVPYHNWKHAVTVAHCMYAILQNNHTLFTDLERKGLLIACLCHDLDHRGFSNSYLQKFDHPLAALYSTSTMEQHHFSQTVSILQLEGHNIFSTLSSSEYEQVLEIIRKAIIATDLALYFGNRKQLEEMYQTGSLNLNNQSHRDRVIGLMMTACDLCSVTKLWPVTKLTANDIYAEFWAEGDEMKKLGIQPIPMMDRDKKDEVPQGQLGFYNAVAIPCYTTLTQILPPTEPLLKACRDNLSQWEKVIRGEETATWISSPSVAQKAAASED

rats [1] = conditions: Kostowski et al. 1976; cited from earlier work
rats [2] = conditions: Kostowski et al. 1976; cited from earlier work; remark: listed apart in the source
rats [3] = conditions: Kostowski et al. 1976; cited from earlier work; remark: listed apart in the source
PDE10 from rat striatum = biological target: T2, PDE10 from rat striatum (Rattus norvegicus, UniProt Q9QYJ6); assay: Inhibition of PDE10 from rat striatum (Method A); assay type: biochemical; conditions: read-out: Km of substrate
T2 construct: from tissue; host or cells: rat striatum (male Wistar)
T2 sequence (Q9QYJ6 1-794): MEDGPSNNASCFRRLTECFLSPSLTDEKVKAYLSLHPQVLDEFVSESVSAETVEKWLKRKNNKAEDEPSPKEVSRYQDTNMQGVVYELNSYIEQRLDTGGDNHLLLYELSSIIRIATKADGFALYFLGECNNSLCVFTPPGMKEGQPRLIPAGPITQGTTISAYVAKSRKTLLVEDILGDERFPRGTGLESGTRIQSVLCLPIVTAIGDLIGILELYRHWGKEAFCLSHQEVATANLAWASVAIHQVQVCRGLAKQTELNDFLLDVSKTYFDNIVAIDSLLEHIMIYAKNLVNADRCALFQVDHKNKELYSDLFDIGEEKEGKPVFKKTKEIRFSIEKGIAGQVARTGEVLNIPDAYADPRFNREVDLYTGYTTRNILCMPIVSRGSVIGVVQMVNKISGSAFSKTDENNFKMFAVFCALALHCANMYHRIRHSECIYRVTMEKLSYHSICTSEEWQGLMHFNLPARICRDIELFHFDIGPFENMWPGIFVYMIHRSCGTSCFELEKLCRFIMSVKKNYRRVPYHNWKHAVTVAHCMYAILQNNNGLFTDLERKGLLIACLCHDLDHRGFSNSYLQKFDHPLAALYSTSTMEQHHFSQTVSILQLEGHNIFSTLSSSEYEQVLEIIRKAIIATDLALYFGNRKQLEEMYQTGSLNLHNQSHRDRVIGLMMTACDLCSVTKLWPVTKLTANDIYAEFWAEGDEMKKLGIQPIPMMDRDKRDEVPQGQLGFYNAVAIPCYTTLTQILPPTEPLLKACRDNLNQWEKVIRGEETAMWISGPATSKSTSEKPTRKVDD
Method: Striatum from male Wistar rats (180-200 g), male hybrid pigs (150 kg) and male guinea pigs (CRL (HA), 500 g) respectively were collected and frozen at −70° C. At the day of preparation 0.5 g striatum was homogenised in 10 ml 50 mM Tris/Mg-buffer at 4° C. and centrifuged for one hour at 100000 g. The supernatant is called the cytosolic fraction and was removed and stored on ice. The pellet was resuspended in the same buffer, but containing 1% Triton and incubated for 45 min at 4° C. Both fractions were independently applied onto a 5 ml Hi Trap™ QHP column at the Äkta-FPLC. After washing the columns the bound PDE protein was eluted with an increasing sodium chloride gradient (0 mM-500 mM sodium chloride) in 50 mM Tris/Mg-buffer at 4° C. for the cytosolic fraction and in the presence of 1% Triton for the membrane fraction. […] The fractions with PDE10-activity were pooled and frozen in aliquots until use at −20° C. PDE10 activity was determined in a one step procedure in microtiter plates. […] Nonspecific activity was tested without the enzyme. The reaction was initiated by addition of the substrate solution and was carried out at 37° C. for 30 minutes. Enzymatic activity was stopped by addition of 25 μl YSi-SPA-beads (Amersham-Pharmacia). One hour later the mixture was measured in a liquid scintillation counter for microtiter plates (Microbeta Trilux). […]

[4] = biological target: Phosphodiesterase (PDE) 10A (Homo sapiens, UniProt Q9Y233); conditions: Soderling et al. 1999; read-out: Km of substrate; cited from earlier work
Phosphodiesterase (PDE) 10A, sequence (Q9Y233 whole entry): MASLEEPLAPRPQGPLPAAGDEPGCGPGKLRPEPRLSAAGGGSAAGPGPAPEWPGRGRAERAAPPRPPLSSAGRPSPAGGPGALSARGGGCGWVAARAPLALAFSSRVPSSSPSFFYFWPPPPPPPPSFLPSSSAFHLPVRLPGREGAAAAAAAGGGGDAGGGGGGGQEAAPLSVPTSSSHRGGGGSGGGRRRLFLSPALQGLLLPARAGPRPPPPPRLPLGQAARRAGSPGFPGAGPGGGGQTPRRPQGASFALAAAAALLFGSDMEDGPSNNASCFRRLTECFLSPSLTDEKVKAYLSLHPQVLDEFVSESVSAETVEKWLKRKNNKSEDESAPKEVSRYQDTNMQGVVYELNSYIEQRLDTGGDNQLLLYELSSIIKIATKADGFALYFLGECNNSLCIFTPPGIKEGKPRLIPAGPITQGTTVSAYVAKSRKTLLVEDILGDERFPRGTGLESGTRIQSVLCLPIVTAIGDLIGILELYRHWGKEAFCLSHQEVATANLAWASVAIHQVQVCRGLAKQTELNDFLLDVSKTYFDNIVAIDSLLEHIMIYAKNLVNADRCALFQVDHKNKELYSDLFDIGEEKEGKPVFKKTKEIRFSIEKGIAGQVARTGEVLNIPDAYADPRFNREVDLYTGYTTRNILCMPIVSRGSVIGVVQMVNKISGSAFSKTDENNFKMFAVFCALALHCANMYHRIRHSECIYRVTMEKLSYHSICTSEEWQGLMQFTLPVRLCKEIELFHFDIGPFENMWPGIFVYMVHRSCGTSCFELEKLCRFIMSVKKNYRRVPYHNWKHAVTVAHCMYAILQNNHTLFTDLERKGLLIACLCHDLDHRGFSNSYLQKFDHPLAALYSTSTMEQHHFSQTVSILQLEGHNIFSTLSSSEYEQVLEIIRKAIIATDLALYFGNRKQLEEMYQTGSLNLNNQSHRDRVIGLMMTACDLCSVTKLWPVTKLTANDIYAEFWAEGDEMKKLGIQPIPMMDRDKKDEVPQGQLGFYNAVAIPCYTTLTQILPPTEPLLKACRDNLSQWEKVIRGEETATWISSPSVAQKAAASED

What does the source list for CCCc1nc(C)c2c(C)nc3ccc(OCC4CC4)cc3n12 [Example 42, 8-Cyclopropylmethoxy-3,4-dimethyl-1-propyl-imidazo[1,5-a]quinoxaline]?
IC50 (PDE10 from pig striatum): 10 to 100 nM; IC50 (human recombinant PDE10A): 10 to 100 nM; melting point: 110 to 112 °C

Which IC50 (PDE10 from pig striatum) does the source give for Cc1nc(C2CCCCC2)n2c1c(C)nc1ccc(OCC3CC3)cc12 [Example 44, 1-Cyclohexyl-8-cyclopropylmethoxy-3,4-dimethyl-imidazo[1,5-a]quinoxaline] here?
Its IC50 is 10 to 100 nM.

And the IC50 (human recombinant PDE10A)?
The IC50 was no less than 100 nM.

What about the melting point of the same compound?
Its melting point is 154 to 157 °C.

Which results are given for CCCc1nc(C)c2c(C)nc3c(OC)cc(OC)cc3n12 [Example 45, 6,8-Dimethoxy-3,4-dimethyl-1-propyl-imidazo[1,5-a]quinoxaline]?
IC50 (PDE10 from pig striatum): ≤ 10 nM; IC50 (human recombinant PDE10A): ≤ 10 nM; melting point: 185 to 187 °C

With COc1ccc2c(c1)nc(C)c1c(C)nc(-c3ccccc3Cl)n12 [Example 47, 1-(2-Chloro-phenyl)-7-methoxy-3,4-dimethyl-imidazo[1,5-a]quinoxaline] as the compound, how does the IC50 (PDE10 from pig striatum) read?
Its IC50 is no more than 10 nM.

What about the IC50 (human recombinant PDE10A) of the same compound?
The IC50 was 10 to 100 nM.

And the melting point?
Its melting point is 186 to 188.5 °C.

Which results are given for CCCc1nc(C)c2c(C)nc3cc(OCc4ccc5ccccc5n4)ccc3n12 [Example 49, 3,4-Dimethyl-1-propyl-7-(quinolin-2-ylmethoxy)-imidazo(1,5-a)quinoxaline]?
IC50 (PDE10 from pig striatum): ≤ 10 nM; IC50 (human recombinant PDE10A): ≤ 10 nM; melting point: 134 to 136 °C

Which IC50 (PDE10 from pig striatum) does the source give for Cc1nc(-c2ccccc2Cl)n2c1c(C)nc1c(OCC3CC3)cc(OCC3CC3)cc12 [Example 50, 1-(2-Chloro-phenyl)-6,8-bis-cyclopropylmethoxy-3,4-dimethyl-imidazo[1,5-a]quinoxaline] here?
The IC50 was no more than 10 nM.

And the IC50 (human recombinant PDE10A)?
Its IC50 is no more than 10 nM.

What about the melting point of the same compound?
Its melting point is 180 to 195 °C.

For COc1cc(OC)c2nc(C)c3c(C)nc(C4CCCCC4)n3c2c1 [Example 51, 1-Cyclohexyl-6,8-dimethoxy-3,4-dimethyl-imidazo[1,5-a]quinoxaline], which IC50 (PDE10 from pig striatum) is on record?
The IC50 was no more than 10 nM.

What about the IC50 (human recombinant PDE10A) of the same compound?
Its IC50 is no more than 10 nM.

And the melting point?
Its melting point is 219 to 222 °C.

Which results are given for COc1cc(OC)c2nc(C)c3c(C)nc(-c4ccccc4C)n3c2c1 [Example 52, 6,8-Dimethoxy-3,4-dimethyl-1-o-tolyl-imidazo[1,5-a]quinoxaline]?
IC50 (PDE10 from pig striatum): ≤ 10 nM; IC50 (human recombinant PDE10A): ≤ 10 nM; melting point: 168 to 169 °C

Which IC50 (PDE10 from pig striatum) does the source give for COc1cc(OC)c2nc(C)c3c(C)nc(-c4ccccc4Cl)n3c2c1 [Example 53, 1-(2-Chloro-phenyl)-6,8-dimethoxy-3,4-dimethyl-imidazo[1,5-a]quinoxaline] here?
The IC50 was no more than 10 nM.

And the IC50 (human recombinant PDE10A)?
The IC50 was no more than 10 nM.

And the melting point?
Its melting point is 183 to 189 °C.

Which “dopamine concentration in rat brain” value (rats [1]) does the source give for COc1ccc(Cc2nccc3cc(OC)c(OC)cc23)cc1OC [Papaverine] here?
Its value is “reducing”.

And the haloperidol-induced catalepsy (rats [2])?
Its haloperidol-induced catalepsy is “increases”.

And the apomorphine-induced stereotypies (rats [3])?
Its apomorphine-induced stereotypies is “reduces”.

Which results are given for Nc1nc2c(ncn2[C@@H]2O[C@@H]3COP(=O)(O)O[C@H]3[C@H]2O)c(=O)[nH]1 [cGMP]?
Km (PDE10 from pig striatum; Method A, PDE10 from pig striatum, read-out: Km of substrate): 2.2 µM; Km (PDE10 from rat striatum): 1.8 µM; Km [4]: 3 µM
